pIC50: −log10 of the molar value.
Test system: NCI-H1417 complex spheroids, growth % test/control
Experiment: Anticancer human tumor NCI-H1417 cell line growth inhibition [Asc];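 also: spheroids exposed to compounds for 7 days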;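 as to viability, T/C: 100% = DMSO vehicle control wells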
Details: for pIC50: curve of first compound; for viability, T/C: stronger effect = lower value
Outline: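 Complex solid-tumor spheroids incorporating human endothelial and mesenchymal stem cells received single agents or combinations over half-log dilution ranges anchored to clinical Cmax.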

CCN1C(C(=O)NC23CCC(C(=O)O)(CC2)CC3)C(c2cccc(Cl)c2F)C2(C(=O)Nc3cc(Cl)ccc32)C12CCCCC2 (stereo not given) + Cc1c(S(C)(=O)=O)c(-c2cc(F)cc(N3CCN(c4ccc(NS(=O)(=O)c5ccc(NC(CCN6CCC(C(=O)OCCCP(=O)(O)O)CC6)CSc6ccccc6)c(S(=O)(=O)C(F)(F)F)c5)cc4)CC3)c2)c(-c2ccc(Cl)cc2)n1C(C)C
pIC50 (second compound 0.1 µM): 6.23 | pIC50 (second compound 0.316 µM): > 8.02 | pIC50 (second compound 1 µM): > 8.02 | pIC50 (second compound 3.16 µM): > 8.02 | pIC50 (second compound 10 µM): > 8.02 | viability, T/C (second compound 0.1 µM, first compound 0.00949 µM): 78.9% | viability, T/C (second compound 0.1 µM, first compound 0.03 µM): 81.2% | viability, T/C (second compound 0.1 µM, first compound 0.0949 µM): 67.5% | viability, T/C (second compound 0.1 µM, first compound 0.3 µM): 58.7% | viability, T/C (second compound 0.1 µM, first compound 0.949 µM): 44.9% | viability, T/C (second compound 0.1 µM, first compound 3 µM): 16.4% | viability, T/C (second compound 0.316 µM, first compound 0.00949 µM): 35.7% | viability, T/C (second compound 0.316 µM, first compound 0.03 µM): 33.3% | viability, T/C (second compound 0.316 µM, first compound 0.0949 µM): 22.1% | viability, T/C (second compound 0.316 µM, first compound 0.3 µM): 16.4% | viability, T/C (second compound 0.316 µM, first compound 0.949 µM): 11.8% | viability, T/C (second compound 0.316 µM, first compound 3 µM): 1.6% | viability, T/C (second compound 1 µM, first compound 0.00949 µM): 11.4% | viability, T/C (second compound 1 µM, first compound 0.03 µM): 6.74% | viability, T/C (second compound 1 µM, first compound 0.0949 µM): 4.76% | viability, T/C (second compound 1 µM, first compound 0.3 µM): 2.15% | viability, T/C (second compound 1 µM, first compound 0.949 µM): 1.25% | viability, T/C (second compound 1 µM, first compound 3 µM): 0.65% | viability, T/C (second compound 3.16 µM, first compound 0.00949 µM): 2.36% | viability, T/C (second compound 3.16 µM, first compound 0.03 µM): 2.41% | viability, T/C (second compound 3.16 µM, first compound 0.0949 µM): 1.59% | viability, T/C (second compound 3.16 µM, first compound 0.3 µM): 1.03% | viability, T/C (second compound 3.16 µM, first compound 0.949 µM): 0.63% | viability, T/C (second compound 3.16 µM, first compound 3 µM): 0.39% | viability, T/C (second compound 10 µM, first compound 0.00949 µM): 1.88% | viability, T/C (second compound 10 µM, first compound 0.03 µM): 2.25% | viability, T/C (second compound 10 µM, first compound 0.0949 µM): 2.08% | viability, T/C (second compound 10 µM, first compound 0.3 µM): 1.02% | viability, T/C (second compound 10 µM, first compound 0.949 µM): 0.65% | viability, T/C (second compound 10 µM, first compound 3 µM): 0.29%

C#Cc1c(F)ccc2cc(O)cc(-c3ncc4c(N5CC6CCC(C5)N6)nc(OCC56CCCN5CC(F)C6)nc4c3F)c12 (stereo not given) + CCN1C(C(=O)NC23CCC(C(=O)O)(CC2)CC3)C(c2cccc(Cl)c2F)C2(C(=O)Nc3cc(Cl)ccc32)C12CCCCC2
pIC50 (second compound 0.03 µM): < 5.00 | pIC50 (second compound 0.0949 µM): < 5.00 | pIC50 (second compound 0.3 µM): < 5.00 | pIC50 (second compound 0.949 µM): < 5.00 | pIC50 (second compound 3 µM): < 5.00 | viability, T/C (second compound 0.03 µM, first compound 0.0316 µM): 101% | viability, T/C (second compound 0.03 µM, first compound 0.1 µM): 106% | viability, T/C (second compound 0.03 µM, first compound 0.316 µM): 106% | viability, T/C (second compound 0.03 µM, first compound 1 µM): 102% | viability, T/C (second compound 0.03 µM, first compound 3.16 µM): 103% | viability, T/C (second compound 0.03 µM, first compound 10 µM): 111% | viability, T/C (second compound 0.0949 µM, first compound 0.0316 µM): 107% | viability, T/C (second compound 0.0949 µM, first compound 0.1 µM): 103% | viability, T/C (second compound 0.0949 µM, first compound 0.316 µM): 93.9% | viability, T/C (second compound 0.0949 µM, first compound 1 µM): 95.2% | viability, T/C (second compound 0.0949 µM, first compound 3.16 µM): 108% | viability, T/C (second compound 0.0949 µM, first compound 10 µM): 109% | viability, T/C (second compound 0.3 µM, first compound 0.0316 µM): 98.2% | viability, T/C (second compound 0.3 µM, first compound 0.1 µM): 94.7% | viability, T/C (second compound 0.3 µM, first compound 0.316 µM): 94.8% | viability, T/C (second compound 0.3 µM, first compound 1 µM): 105% | viability, T/C (second compound 0.3 µM, first compound 3.16 µM): 108% | viability, T/C (second compound 0.3 µM, first compound 10 µM): 108% | viability, T/C (second compound 0.949 µM, first compound 0.0316 µM): 88.2% | viability, T/C (second compound 0.949 µM, first compound 0.1 µM): 96.9% | viability, T/C (second compound 0.949 µM, first compound 0.316 µM): 97.3% | viability, T/C (second compound 0.949 µM, first compound 1 µM): 88.3% | viability, T/C (second compound 0.949 µM, first compound 3.16 µM): 84% | viability, T/C (second compound 0.949 µM, first compound 10 µM): 77.3% | viability, T/C (second compound 3 µM, first compound 0.0316 µM): 91% | viability, T/C (second compound 3 µM, first compound 0.1 µM): 88.1% | viability, T/C (second compound 3 µM, first compound 0.316 µM): 105% | viability, T/C (second compound 3 µM, first compound 1 µM): 88.7% | viability, T/C (second compound 3 µM, first compound 3.16 µM): 89.5% | viability, T/C (second compound 3 µM, first compound 10 µM): 95.7%

Source: PubChem BioAssay AID1963440 (Molecular Pharmacology Branch, DTP, NCI, 2024)
